Experimental findings from US20220356186A1, “PERK INHIBITING PYRROLOPYRIMIDINE COMPOUNDS” (HiberCell, Inc., priority 2019, published 2022) are described below.

Each structure is given as a SMILES string. Where two headings read alike, the source gives them in different places.

For assay [1], the target named is T1, EIF2AK3 (PERK) catalytic domain (amino acids 536-1116) (Homo sapiens, UniProt Q9NZJ5).
T1 construct: EIF2AK3 (PERK) catalytic domain (amino acids 536-1116)
T1 sequence (Q9NZJ5 536-1116): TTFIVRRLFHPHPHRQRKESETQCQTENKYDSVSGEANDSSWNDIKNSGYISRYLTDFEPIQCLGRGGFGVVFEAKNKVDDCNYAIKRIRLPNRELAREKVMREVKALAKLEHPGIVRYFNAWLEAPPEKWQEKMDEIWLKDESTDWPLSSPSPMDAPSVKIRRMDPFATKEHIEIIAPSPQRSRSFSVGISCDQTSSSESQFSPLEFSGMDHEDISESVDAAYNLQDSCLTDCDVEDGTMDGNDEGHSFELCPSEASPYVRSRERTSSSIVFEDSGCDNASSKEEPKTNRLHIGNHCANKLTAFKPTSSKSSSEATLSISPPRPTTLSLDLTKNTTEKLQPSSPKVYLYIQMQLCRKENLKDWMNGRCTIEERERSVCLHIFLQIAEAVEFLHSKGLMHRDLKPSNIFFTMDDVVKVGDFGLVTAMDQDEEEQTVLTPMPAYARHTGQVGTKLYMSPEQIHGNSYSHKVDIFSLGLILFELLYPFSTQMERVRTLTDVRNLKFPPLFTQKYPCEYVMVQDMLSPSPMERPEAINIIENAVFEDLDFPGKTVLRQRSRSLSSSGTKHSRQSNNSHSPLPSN
The assay is described as follows: PERK in vitro activity assay (isolated), TR-FRET kinase assay. To be noted: isolated PERK enzyme, 1.5 μM ATP; read-out: Biochemical IC50. Format: biochemical. In outline: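 Human PERK catalytic domain (aa 536-1116) phosphorylating 100-200 nM GFP-eIF2a in 50 mM HEPES pH 7.5, 10 mM MgCl2, 1 mM EGTA, 0.01% Brij-35; enzyme-started, 45 min at room temperature. Stopped with 10 mM EDTA, 2 nM Tb-anti-phospho-eIF2a added for 90 min; IC50 from TR-FRET ratios by 4-parameter logistic fit.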
(Time-resolved FRET reads energy transfer from a long-lived donor to a nearby acceptor.)

The test system of assay [2] is GFP-eIF2α in HEK293 cells. In words: PERK cellular assay, TR-FRET in HEK293-EGFP-eIF2a cells after tunicamycin-induced ER stress. Format: cell-based. To be noted: HEK293-EGFP-eIF2a cells, tunicamycin 2 hours, read-out: Cellular eIF2α IC50. A digest of the protocol: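 HEK293 cells stably expressing GFP-eIF2α, plated 5000 cells/well overnight, pretreated with inhibitors 30 min at 37 °C, then ER stress induced with tunicamycin […] for 2 h.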

As usually defined, the IC50 is the concentration that gives 50% inhibition. For the compound `Cc1nc(N)c2c(-c3ccc(NC(=O)C(O)c4cccc(Cl)c4)cc3Cl)cn(C)c2n1` (stereo not shown) [Example 99, N-(4-(4-amino-2,7-dimethyl-7H-pyrrolo[2,3-d]pyrimidin-5-yl)-3-chlorophenyl)-2-(3-chlorophenyl)-2-hydroxyacetamide], the IC50 in assay [1] and in assay [2] was 1 to 25 nM throughout.

As for `Cc1nc(N)c2c(-c3ccc(NC(=O)C(O)c4cccc(Cl)c4)cc3Cl)cn(C)c2n1` (stereo not shown) [Example 100, N-(4-(4-amino-2,7-dimethyl-7H-pyrrolo[2,3-d]pyrimidin-5-yl)-3-chlorophenyl)-2-(3-chlorophenyl)-2-hydroxyacetamide], the IC50 in assay [1] lay within 26 to 50 nM; in assay [2], 101 to 250 nM.

As for `Cc1nc(N)c2c(-c3ccc(NC(=O)C(O)c4cccc(C(F)(F)F)c4)cc3Cl)cn(C)c2n1` (stereo not shown) [Example 101, N-(4-(4-amino-2,7-dimethyl-7H-pyrrolo[2,3-d]pyrimidin-5-yl)-3-chlorophenyl)-2-hydroxy-2-(3-(trifluoromethyl)phenyl)acetamide], the IC50 in assay [1] and in assay [2] was 1 to 25 nM each time.

`Cc1nc(N)c2c(-c3ccc(NC(=O)C(O)c4cccc(C(F)(F)F)c4)cc3Cl)cn(C)c2n1` (stereo not shown) [Example 102, N-(4-(4-amino-2,7-dimethyl-7H-pyrrolo[2,3-d]pyrimidin-5-yl)-3-chlorophenyl)-2-hydroxy-2-(3-(trifluoromethyl)phenyl)acetamide]: the IC50 in assay [1] and in assay [2] was 101 to 250 nM each time.

With `COc1cc(NC(=O)C(O)c2cccc(F)c2)ccc1-c1cn(C)c2ncnc(N)c12` (stereo not shown) [Example 103, N-(4-(4-amino-7-methyl-7H-pyrrolo[2,3-d]pyrimidin-5-yl)-3-methoxyphenyl)-2-(3-fluorophenyl)-2-hydroxyacetamide], the figures for the IC50 in assay [1] and in assay [2] were 101 to 250 nM and 2000 to 3000 nM, respectively.

Turning to `COc1cc(NC(=O)C(O)c2cccc(F)c2)ccc1-c1cn(C)c2ncnc(N)c12` (stereo not shown) [Example 104, N-(4-(4-amino-7-methyl-7H-pyrrolo[2,3-d]pyrimidin-5-yl)-3-methoxyphenyl)-2-(3-fluorophenyl)-2-hydroxyacetamide], the IC50 in assay [1] is 26 to 50 nM; in assay [2] it was 101 to 250 nM.

For `Cc1nc(N)c2c(-c3ccc(NC(=O)C(O)c4cccc(C(F)(F)F)c4)c(F)c3F)cn(C)c2n1` (stereo not shown) [Example 107, N-(4-(4-amino-2,7-dimethyl-7H-pyrrolo[2,3-d]pyrimidin-5-yl)-2,3-difluorophenyl)-2-hydroxy-2-(3-(trifluoromethyl)phenyl)acetamide], the IC50 in assay [1] and in assay [2] was 1 to 25 nM throughout.

Regarding `Cc1nc(N)c2c(-c3ccc(NC(=O)C(O)c4cccc(C(F)(F)F)c4)c(F)c3F)cn(C)c2n1` (stereo not shown) [Example 108, N-(4-(4-amino-2,7-dimethyl-7H-pyrrolo[2,3-d]pyrimidin-5-yl)-2,3-difluorophenyl)-2-hydroxy-2-(3-(trifluoromethyl)phenyl)acetamide], the IC50 in assay [1] and in assay [2] was 101 to 250 nM throughout.

Take `Cc1nc(N)c2c(-c3ccc(NC(=O)C(O)c4cccc(Cl)c4)c(F)c3F)cn(C)c2n1` (stereo not shown) [Example 111, N-(4-(4-amino-2,7-dimethyl-7H-pyrrolo[2,3-d]pyrimidin-5-yl)-2,3-difluorophenyl)-2-(3-chlorophenyl)-2-hydroxyacetamide]: the IC50 in assay [1] and in assay [2] was 1 to 25 nM throughout.

With `Cc1nc(N)c2c(-c3ccc(NC(=O)C(O)c4cccc(Cl)c4)c(F)c3F)cn(C)c2n1` (stereo not shown) [Example 112, N-(4-(4-amino-2,7-dimethyl-7H-pyrrolo[2,3-d]pyrimidin-5-yl)-2,3-difluorophenyl)-2-(3-chlorophenyl)-2-hydroxyacetamide], the results for the IC50 in assay [1] and in assay [2] were 101 to 250 nM and 501 to 1000 nM, respectively.

`Cc1c(-c2cn(C)c3ncnc(N)c23)ccc(NC(=O)C(O)c2cccc(F)c2)c1F` (stereo not shown) [Example 117, N-(4-(4-amino-7-methyl-7H-pyrrolo[2,3-d]pyrimidin-5-yl)-2-fluoro-3-methylphenyl)-2-(3-fluorophenyl)-2-hydroxyacetamide]: the IC50 in assay [1] and in assay [2] was 1 to 25 nM throughout.

In the case of `Cc1c(-c2cn(C)c3ncnc(N)c23)ccc(NC(=O)C(O)c2cccc(F)c2)c1F` (stereo not shown) [Example 118, N-(4-(4-amino-7-methyl-7H-pyrrolo[2,3-d]pyrimidin-5-yl)-2-fluoro-3-methylphenyl)-2-(3-fluorophenyl)-2-hydroxyacetamide], the IC50 in assay [1] was in the range of 26 to 50 nM; in assay [2] it was 251 to 500 nM.

Regarding `Cc1cc(NC(=O)C(O)c2cccc(F)c2)c(F)cc1-c1cn(C)c2ncnc(N)c12` (stereo not shown) [Example 119, N-(4-(4-amino-7-methyl-7H-pyrrolo[2,3-d]pyrimidin-5-yl)-2-fluoro-5-methylphenyl)-2-(3-fluorophenyl)-2-hydroxyacetamide], the IC50 in assay [1] and in assay [2] was 1 to 25 nM throughout.

Turning to `Cc1cc(NC(=O)C(O)c2cccc(F)c2)c(F)cc1-c1cn(C)c2ncnc(N)c12` (stereo not shown) [Example 120, N-(4-(4-amino-7-methyl-7H-pyrrolo[2,3-d]pyrimidin-5-yl)-2-fluoro-5-methylphenyl)-2-(3-fluorophenyl)-2-hydroxyacetamide], the IC50 in assay [1] fell in the range of 51 to 100 nM; in assay [2], 251 to 500 nM.

Regarding `Cc1nc(N)c2c(-c3cc(F)c(NC(=O)C(O)c4cccc(F)c4)cc3F)cn(C)c2n1` (stereo not shown) [Example 123, N-(4-(4-amino-2,7-dimethyl-7H-pyrrolo[2,3-d]pyrimidin-5-yl)-2,5-difluorophenyl)-2-(3-fluorophenyl)-2-hydroxyacetamide], the IC50 lay within 1 to 25 nM in assay [1] and 26 to 50 nM in assay [2] (Homo sapiens, HEK293, 2 h).

Regarding `Cc1cc(NC(=O)C(O)c2cccc(F)c2)cc(F)c1-c1cn(C)c2ncnc(N)c12` (stereo not shown) [Example 124, N-(4-(4-amino-7-methyl-7H-pyrrolo[2,3-d]pyrimidin-5-yl)-3-fluoro-5-methylphenyl)-2-(3-fluorophenyl)-2-hydroxyacetamide], the IC50 in assay [1] lay in the range of 1 to 25 nM; in assay [2] (Homo sapiens, HEK293, 2 h), 1 to 25 nM.

With `Cc1nc(N)c2c(-c3c(C)cc(NC(=O)C(O)c4cccc(F)c4)cc3F)cn(C)c2n1` (stereo not shown) [Example 125, N-(4-(4-amino-2,7-dimethyl-7H-pyrrolo[2,3-d]pyrimidin-5-yl)-3-fluoro-5-methylphenyl)-2-(3-fluorophenyl)-2-hydroxyacetamide], the 50% inhibitory concentration (IC50) fell in the range of 1 to 25 nM in assay [1] and 51 to 100 nM in assay [2] (Homo sapiens, HEK293, 2 h).

Regarding `Cc1nc(N)c2c(-c3c(C)cc(NC(=O)C(O)c4cccc(F)c4)cc3C)cn(C)c2n1` (stereo not shown) [Example 126, N-(4-(4-amino-2,7-dimethyl-7H-pyrrolo[2,3-d]pyrimidin-5-yl)-3,5-dimethylphenyl)-2-(3-fluorophenyl)-2-hydroxyacetamide], the IC50 in assay [1] was in the range of 1 to 25 nM; in assay [2] (Homo sapiens, HEK293, 2 h) it was 51 to 100 nM.

For `Cc1nc(N)c2c(-c3ccc(NC(=O)C(O)c4cccc(F)c4)nc3C)cn(C)c2n1` (stereo not shown) [Example 127, N-(5-(4-amino-2,7-dimethyl-7H-pyrrolo[2,3-d]pyrimidin-5-yl)-6-methylpyridin-2-yl)-2-(3-fluorophenyl)-2-hydroxyacetamide], the IC50 was 1 to 25 nM in assay [1] and 101 to 250 nM in assay [2].

On to `Cc1nc(N)c2c(-c3ccc(NC(=O)C(O)c4cccc(F)c4)nc3C)cn(C)c2n1` (stereo not shown) [Example 128, N-(5-(4-amino-2,7-dimethyl-7H-pyrrolo[2,3-d]pyrimidin-5-yl)-6-methylpyridin-2-yl)-2-(3-fluorophenyl)-2-hydroxyacetamide], for which the IC50 in assay [1] is 501 to 1000 nM; in assay [2], greater than 5000 nM.

For `Cc1nc(N)c2c(-c3ccc(NC(=O)C(O)c4cccc(C(F)(F)F)c4)nc3C)cn(C)c2n1` (stereo not shown) [Example 129, N-(5-(4-amino-2,7-dimethyl-7H-pyrrolo[2,3-d]pyrimidin-5-yl)-6-methylpyridin-2-yl)-2-hydroxy-2-(3-(trifluoromethyl)phenyl)acetamide], the IC50 lay in the range of 1 to 25 nM in assay [1] and 51 to 100 nM in assay [2].

As for `Cc1nc(N)c2c(-c3ccc(NC(=O)C(O)c4cccc(C(F)(F)F)c4)nc3C)cn(C)c2n1` (stereo not shown) [Example 130, N-(5-(4-amino-2,7-dimethyl-7H-pyrrolo[2,3-d]pyrimidin-5-yl)-6-methylpyridin-2-yl)-2-hydroxy-2-(3-(trifluoromethyl)phenyl)acetamide], the IC50 in assay [1] lay within 101 to 250 nM; in assay [2] it was 1000 to 2000 nM.

As for `Cc1nc(N)c2c(-c3cnc(NC(=O)C(O)c4cccc(C(F)(F)F)c4)cc3C)cn(C)c2n1` (stereo not shown) [Example 131, N-(5-(4-amino-2,7-dimethyl-7H-pyrrolo[2,3-d]pyrimidin-5-yl)-4-methylpyridin-2-yl)-2-hydroxy-2-(3-(trifluoromethyl)phenyl)acetamide], the IC50 in assay [1] was 26 to 50 nM; in assay [2], 251 to 500 nM.
